Measured values published in patent US20110081315A1, “NOVEL MACROCYCLIC INHIBITORS OF HEPATITIS C VIRUS REPLICATION” (INTERMUNE, INC., priority 2009, published 2011).

Legend:
[1] = test system: hepatitis C replicon; test: hepatitis C replicon EC50 assay; format: cell-based; conditions: Hepatitis C virus; hepatitis C replicon; read-out: EC50
Summary of the method: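 Replicon EC50 determined per a referenced patent protocol; assays run at ambient temperature (23° C.) in 50 mM Tris-HCl pH 7.5 with 15% glycerol, 0.6 mM LDAO, 25 μM NS4A peptide and 10 mM DTT.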

[2] = target: NS3/NS4 complexes (Hepatitis C virus genotype 1a, UniProt P27958); test: NS3/NS4 inhibition assay (IC50); format: biochemical; conditions: NS3/NS4 activity; 23° C., 25 μM NS4A peptide
Summary of the method: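 NS3/NS4 protease complexes were formed and compound inhibitory concentrations (IC50) measured at ambient temperature (23° C.) in 50 mM Tris-HCl, pH 7.5, with 15% glycerol, 0.6 mM LDAO, 25 μM NS4A peptide and 10 mM DTT. Replicon EC50 values come from a standard HCV replicon cell assay.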

Chain of NS3/NS4 complexes (P27958 1027-1657, one chain of several): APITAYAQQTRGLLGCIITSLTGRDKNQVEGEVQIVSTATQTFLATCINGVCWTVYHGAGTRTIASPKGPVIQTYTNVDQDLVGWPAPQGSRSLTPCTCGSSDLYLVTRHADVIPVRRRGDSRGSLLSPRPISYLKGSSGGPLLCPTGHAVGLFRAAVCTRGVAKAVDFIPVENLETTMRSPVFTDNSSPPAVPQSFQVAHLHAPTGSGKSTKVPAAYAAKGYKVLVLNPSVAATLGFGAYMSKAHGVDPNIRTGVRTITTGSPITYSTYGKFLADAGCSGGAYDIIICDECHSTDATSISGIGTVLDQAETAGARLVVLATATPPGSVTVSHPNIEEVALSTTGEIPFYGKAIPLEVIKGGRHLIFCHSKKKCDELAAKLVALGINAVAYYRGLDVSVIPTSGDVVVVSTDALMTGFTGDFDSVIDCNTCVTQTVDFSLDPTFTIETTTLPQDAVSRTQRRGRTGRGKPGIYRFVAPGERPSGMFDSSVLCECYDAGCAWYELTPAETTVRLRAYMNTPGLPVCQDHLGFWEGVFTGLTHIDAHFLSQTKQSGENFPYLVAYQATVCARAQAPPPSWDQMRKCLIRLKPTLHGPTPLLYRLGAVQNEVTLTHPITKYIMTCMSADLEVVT

Structure (SMILES) | EC50 [1] [nM] | IC50 [2] [nM]
CC(C)n1c(O[C@@H]2C[C@H]3C(=O)N[C@]4(C(=O)NS(=O)(=O)N(C)C)C[C@H]4/C=C\CCCCC[C@H](NC(=O)OC(C)(C)C)C(=O)N3C2)nc2c(-c3csc(N4CCOCC4)n3)cccc21 [Compound 1741] | < 10 | < 10
CC(C)n1c(O[C@@H]2C[C@H]3C(=O)N[C@]4(C(=O)NS(=O)(=O)N(C)C)C[C@H]4/C=C\CCCCC[C@H](NC(=O)OC(C)(C)C)C(=O)N3C2)nc2c(-c3csc(N4CCCCC4)n3)cccc21 [Compound 1742] | 10 to 100 | < 10
CC(C)n1c(O[C@@H]2C[C@H]3C(=O)N[C@]4(C(=O)NS(=O)(=O)N(C)C)C[C@H]4/C=C\CCCCC[C@H](NC(=O)OC(C)(C)C)C(=O)N3C2)nc2c(-c3csc(C(C)(C)C)n3)cccc21 [Compound 1743] | 10 to 100 | < 10
CC(C)n1c(O[C@@H]2C[C@H]3C(=O)N[C@]4(C(=O)NS(=O)(=O)N(C)C)C[C@H]4/C=C\CCCCC[C@H](NC(=O)OC(C)(C)C)C(=O)N3C2)nc2c(-c3cnc(N4CCOCC4)cn3)cccc21 [Compound 1744] | < 10 | < 10
CC(C)n1c(O[C@@H]2C[C@H]3C(=O)N[C@]4(C(=O)NS(=O)(=O)N5CCC5)C[C@H]4/C=C\CCCCC[C@H](NC(=O)OC(C)(C)C)C(=O)N3C2)nc2c(-c3nc(C4CCCC4)cs3)cccc21 [Compound 1745] | 10 to 100 | < 10
Cc1ccc(-c2csc(-c3cccc4c3nc(O[C@@H]3C[C@H]5C(=O)N[C@]6(C(=O)NS(=O)(=O)N(C)C)C[C@H]6/C=C\CCCCC[C@H](NC(=O)OC(C)(C)C)C(=O)N5C3)n4C(C)C)n2)cc1 [Compound 1746] | 10 to 100 | < 10
CC(C)n1c(O[C@@H]2C[C@H]3C(=O)N[C@]4(C(=O)NS(=O)(=O)N(C)C)C[C@H]4/C=C\CCCCC[C@H](NC(=O)OC(C)(C)C)C(=O)N3C2)nc2c(-c3nc(-c4ccccc4F)cs3)cccc21 [Compound 1747] | 10 to 100 | < 10
Cc1ccccc1-c1csc(-c2cccc3c2nc(O[C@@H]2C[C@H]4C(=O)N[C@]5(C(=O)NS(=O)(=O)N(C)C)C[C@H]5/C=C\CCCCC[C@H](NC(=O)OC(C)(C)C)C(=O)N4C2)n3C(C)C)n1 [Compound 1748] | 10 to 100 | < 10
CC(C)n1c(O[C@@H]2C[C@H]3C(=O)N[C@]4(C(=O)NS(=O)(=O)N(C)C)C[C@H]4/C=C\CCCCC[C@H](NC(=O)OC(C)(C)C)C(=O)N3C2)nc2c(-c3nc(-c4ccccc4Cl)cs3)cccc21 [Compound 1749] | 10 to 100 | < 10
Cc1cccc(-c2csc(-c3cccc4c3nc(O[C@@H]3C[C@H]5C(=O)N[C@]6(C(=O)NS(=O)(=O)N(C)C)C[C@H]6/C=C\CCCCC[C@H](NC(=O)OC(C)(C)C)C(=O)N5C3)n4C(C)C)n2)c1 [Compound 1750] | 10 to 100 | < 10
CC(C)n1c(O[C@@H]2C[C@H]3C(=O)N[C@]4(C(=O)NS(=O)(=O)N(C)C)C[C@H]4/C=C\CCCCC[C@H](NC(=O)OC(C)(C)C)C(=O)N3C2)nc2c(-c3nc(-c4ccc(Cl)cc4)cs3)cccc21 [Compound 1751] | 10 to 100 | < 10
COc1ccc(-c2csc(-c3cccc4c3nc(O[C@@H]3C[C@H]5C(=O)N[C@]6(C(=O)NS(=O)(=O)N(C)C)C[C@H]6/C=C\CCCCC[C@H](NC(=O)OC(C)(C)C)C(=O)N5C3)n4C(C)C)n2)cc1 [Compound 1752] | 10 to 100 | < 10
CC(C)n1c(O[C@@H]2C[C@H]3C(=O)N[C@]4(C(=O)NS(=O)(=O)N(C)C)C[C@H]4/C=C\CCCCC[C@H](NC(=O)OC(C)(C)C)C(=O)N3C2)nc2c(-c3nc(-c4ccc(-c5ccccc5)cc4)cs3)cccc21 [Compound 1753] | 10 to 100 | < 10
Cc1ccc(-c2csc(-c3cccc4c3nc(O[C@@H]3C[C@H]5C(=O)N[C@]6(C(=O)NS(=O)(=O)N(C)C)C[C@H]6/C=C\CCCCC[C@H](NC(=O)OC(C)(C)C)C(=O)N5C3)n4C(C)C)n2)c(C)c1 [Compound 1754] | 10 to 100 | < 10
CC(C)n1c(O[C@@H]2C[C@H]3C(=O)N[C@]4(C(=O)NS(=O)(=O)N(C)C)C[C@H]4/C=C\CCCCC[C@H](NC(=O)OC(C)(C)C)C(=O)N3C2)nc2c(-c3nc(Cc4ccc(F)c(F)c4)cs3)cccc21 [Compound 1755] | 10 to 100 | < 10
CC(C)n1c(O[C@@H]2C[C@H]3C(=O)N[C@]4(C(=O)NS(=O)(=O)N(C)C)C[C@H]4/C=C\CCCCC[C@H](NC(=O)OC(C)(C)C)C(=O)N3C2)nc2c(-c3nc(Cc4cc(F)cc(F)c4)cs3)cccc21 [Compound 1756] | 10 to 100 | < 10

Structure (SMILES) | EC50 [1] [nM] | IC50 [2] [nM]
COc1ccc(Cc2csc(-c3cccc4c3nc(O[C@@H]3C[C@H]5C(=O)N[C@]6(C(=O)NS(=O)(=O)N(C)C)C[C@H]6/C=C\CCCCC[C@H](NC(=O)OC(C)(C)C)C(=O)N5C3)n4C(C)C)n2)cc1OC [Compound 1757] | < 10 | < 10
CC(C)n1c(O[C@@H]2C[C@H]3C(=O)N[C@]4(C(=O)NS(=O)(=O)N(C)C)C[C@H]4/C=C\CCCCC[C@H](NC(=O)OC(C)(C)C)C(=O)N3C2)nc2c(-c3nc(Cc4cccc(F)c4)cs3)cccc21 [Compound 1758] | 10 to 100 | < 10
CC(C)n1c(O[C@@H]2C[C@H]3C(=O)N[C@]4(C(=O)NS(=O)(=O)N(C)C)C[C@H]4/C=C\CCCCC[C@H](NC(=O)OC(C)(C)C)C(=O)N3C2)nc2c(-c3nc(Cc4ccc(F)cc4)cs3)cccc21 [Compound 1759] | < 10 | < 10
CC(C)n1c(O[C@@H]2C[C@H]3C(=O)N[C@]4(C(=O)NS(=O)(=O)N(C)C)C[C@H]4/C=C\CCCCC[C@H](NC(=O)OC(C)(C)C)C(=O)N3C2)nc2c(-c3nc(Cc4ccccc4Cl)cs3)cccc21 [Compound 1760] | 10 to 100 | < 10
CC(C)n1c(O[C@@H]2C[C@H]3C(=O)N[C@]4(C(=O)NS(=O)(=O)N(C)C)C[C@H]4/C=C\CCCCC[C@H](NC(=O)OC(C)(C)C)C(=O)N3C2)nc2c(-c3nc(Cc4cccc(Cl)c4)cs3)cccc21 [Compound 1761] | 10 to 100 | < 10
CC(C)n1c(O[C@@H]2C[C@H]3C(=O)N[C@]4(C(=O)O)C[C@H]4/C=C\CCCCC[C@H](Nc4ccc(F)cc4)C(=O)N3C2)nc2c(-c3nc(C4CCCC4)cs3)cccc21 [Compound 1762] | > 100 | 10 to 100
CC(C)n1c(O[C@@H]2C[C@H]3C(=O)N[C@]4(C(=O)O)C[C@H]4/C=C\CCCCC[C@H](Nc4cccc(F)c4)C(=O)N3C2)nc2c(-c3nc(C4CCCC4)cs3)cccc21 [Compound 1763] | > 100 | 10 to 100
CC(C)n1c(O[C@@H]2C[C@H]3C(=O)N[C@]4(C(=O)NS(=O)(=O)C5(C)CC5)C[C@H]4/C=C\CCCCC[C@H](NC(=O)OC(C)(C)C)C(=O)N3C2)nc2c(-c3nc4c(s3)CCC4)cccc21 [Compound 1765] | < 10 | < 10
CC(C)n1c(O[C@@H]2C[C@H]3C(=O)N[C@]4(C(=O)NS(=O)(=O)N(C)C)C[C@H]4/C=C\CCCCC[C@H](NC(=O)OC(C)(C)C)C(=O)N3C2)nc2c(-c3nc(C4CCC4)cs3)cccc21 [Compound 1766] | < 10 | < 10
CC(C)n1c(O[C@@H]2C[C@H]3C(=O)N[C@]4(C(=O)NS(=O)(=O)C5(C)CC5)C[C@H]4/C=C\CCCCC[C@H](NC(=O)OC(C)(C)C)C(=O)N3C2)nc2c(-c3nc(Cc4ccccc4)cs3)cccc21 [Compound 1767] | < 10 | < 10
CC(C)n1c(O[C@@H]2C[C@H]3C(=O)N[C@]4(C(=O)NS(=O)(=O)N(C)C)C[C@H]4/C=C\CCCCC[C@H](NC(=O)OC(C)(C)C)C(=O)N3C2)nc2c(-c3nc(Cc4ccccc4)cs3)cccc21 [Compound 1768] | < 10 | < 10
CC(C)n1c(O[C@@H]2C[C@H]3C(=O)N[C@]4(C(=O)NS(=O)(=O)C5(C)CC5)C[C@H]4/C=C\CCCCC[C@H](NC(=O)OC(C)(C)C)C(=O)N3C2)nc2c(-c3nc(C4CCCCC4)cs3)cccc21 [Compound 1769] | < 10 | < 10
CC(C)n1c(O[C@@H]2C[C@H]3C(=O)N[C@]4(C(=O)NS(=O)(=O)N(C)C)C[C@H]4/C=C\CCCCC[C@H](NC(=O)OC(C)(C)C)C(=O)N3C2)nc2c(-c3nc(C4CCCCC4)cs3)cccc21 [Compound 1770] | 10 to 100 | < 10
CC(C)n1c(O[C@@H]2C[C@H]3C(=O)N[C@]4(C(=O)NS(=O)(=O)C5(C)CC5)C[C@H]4/C=C\CCCCC[C@H](NC(=O)OC(C)(C)C)C(=O)N3C2)nc2c(-c3nc(C4CCC4)cs3)cccc21 [Compound 1771] | < 10 | < 10
CC(C)n1c(O[C@@H]2C[C@H]3C(=O)N[C@]4(C(=O)NS(=O)(=O)N(C)C)C[C@H]4/C=C\CCCCC[C@H](NC(=O)OC(C)(C)C)C(=O)N3C2)nc2c(-c3nc(CC4CCCCC4)cs3)cccc21 [Compound 1772] | 10 to 100 | < 10
